# Experimental data published in patent US9617267B2, “Compounds and methods for kinase modulation, and indications therefor” (Plexxikon Inc., priority 2009, dated 2017).
# Like-named read-outs stand apart in the source and are kept apart here.
# Columns and labels:
# B-Raf [1] = biological target: B-Raf (Homo sapiens (Human), UniProt P15056); test: B-Raf kinase activity biochemical assay (AlphaScreen, biotin-MEK1 phosphorylation); details: B-Raf
# In short: (§1)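 Compounds from a 0.1 mM DMSO stock were tested at 8 serially diluted points. Kinase reactions with 100 μM ATP (final) ran 45 min at room temperature, then were stopped with EDTA buffer containing anti-phospho-MEK1/2 antibody plus streptavidin donor and protein A acceptor beads.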
# B-Raf [2] = test: as above; details: for Biochemical activity ratio B/V600E: ratio of IC50 B-Raf / B-Raf V600E; for Biochemical activity ratio B/C: ratio of IC50 B-Raf / c-Raf-1
# In short: as §1
# B-Raf V600E = B-Raf V600E (Homo sapiens (Human), UniProt P15056, V600E); test: B-Raf V600E kinase activity biochemical assay (AlphaScreen, biotin-MEK1 phosphorylation); details: for IC50: B-Raf V600E; for Biochemical activity ratio V600E/C: ratio of IC50 B-Raf V600E / c-Raf-1
# In short: as §1
# c-Raf-1 = c-Raf-1 (Homo sapiens, UniProt P04049); test: c-Raf-1 kinase activity biochemical assay (AlphaScreen, biotin-MEK1 phosphorylation)
# In short: as §1
# [3] = Relative solubility by turbidity threshold concentration in aqueous buffers (pH 1.5, 4.5, 6.8, 7.4); assay type: physicochemical; details: for turbidity threshold (L, M, H) 1.4: pH 1.4 [sic] (method: SGF pH 1.5); for turbidity threshold (L, M, H) 4.5: pH 4.5 (SIF); for turbidity threshold (L, M, H) 6.8: pH 6.8 (SIF); for turbidity threshold (L, M, H) 7.4: pH 7.4 (HEPES)
# In short: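 Solubility class (high >250 μM, moderate 31.3–250 μM, low <31.3 μM) comes from the concentration where absorbance reaches a 0.01 threshold, averaged across 490/535/650 nm. Samples were compound dilutions from DMSO stock, 1 μL into 99 μL buffer at pH 1.5, 4.5, 6.8 or 7.4.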
# CYP1A2 = CYP1A2 (Homo sapiens (Human), UniProt P05177); test: CYP enzyme inhibition, fluorescent substrate (CEC)
# In short: (§2)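 IC50 derived from loss of fluorescent metabolite across a 10-point 1:1 dilution series. CYP2D6: 1.5 pmol enzyme, 1.5 μM AMMC, 30 min at 37 °C, 409/530 nm; CYP1A2: 0.5 pmol, 5 μM CEC, 15 min, 409/460 nm. Compounds pre-incubated 10 min in NADPH-regenerating mix.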
# CYP2C19 = CYP2C19 (Homo sapiens (Human), UniProt P33261); test: CYP enzyme inhibition, fluorescent substrate (CEC)
# In short: (§3)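 First, 100 mM DMSO stocks are diluted into acetonitrile, then twofold through co-factor mix for 10 points. Next, mixtures are preincubated 10 min at 37 °C.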
# CYP2C9 = CYP2C9 (Homo sapiens (Human), UniProt P11712); test: CYP enzyme inhibition, fluorescent substrate (MFC)
# In short: as §3
# CYP2D6 = CYP2D6 (Homo sapiens (Human), UniProt P10635); test: CYP enzyme inhibition, fluorescent substrate (AMMC); assay type: in vitro ADME; details: read-out: Cyp IC50 2D6
# In short: as §2
# CYP3A4(BFC) = CYP3A4(BFC) (Homo sapiens (Human), UniProt P08684); test: CYP enzyme inhibition, fluorescent substrate BFC
# In short: as §3
# CYP3A4(BQ) = CYP3A4(BQ) (Homo sapiens (Human), UniProt P08684); test: CYP enzyme inhibition, fluorescent substrate BQ
# Procedure: CYP (Cytochrome P450) enzymes are the major drug metabolizing enzymes present in the liver. The inhibition of CYP enzyme activity (IC50) for each of CYP1A2, CYP2C19, CYP2C9, CYP2D6, CYP3A4(BFC) and CYP3A4(BQ) is determined for compounds, where inhibition of metabolism of a known substrate leads to a decrease in the fluorescence of the metabolized product. The fluorescence of the product is monitored as a function of compound concentration.
# Compounds are dissolved in dimethyl sulfoxide to a concentration of 100 mM. These are diluted 1 μL into 82 μL of acetonitrile. […] These are then serially diluted 1:1 (160 μL to 160 μL co-factor mix) for a total of 10 points. A 10 μL aliquot of this final mixture is dispensed into 384 well assay plates and incubated for 10 minutes at 37° C. […] Assay plates are incubated at 37° C. […] The signal versus compound concentration is used to determine the IC50. The enzymes and substrates for this assay are obtained from BD Biosciences.
# [4] = read-out: Cyp IC50 2C19, CYP2C19, substrate CEC
# [5] = read-out: Cyp IC50 2C9, CYP2C9, substrate MFC
# [6] = read-out: Cyp IC50 3A4(BFC), CYP3A4, substrate BFC
# [7] = read-out: Cyp IC50 3A4(BQ), CYP3A4, substrate BQ
# Chain of B-Raf V600E (P15056 whole entry V600E): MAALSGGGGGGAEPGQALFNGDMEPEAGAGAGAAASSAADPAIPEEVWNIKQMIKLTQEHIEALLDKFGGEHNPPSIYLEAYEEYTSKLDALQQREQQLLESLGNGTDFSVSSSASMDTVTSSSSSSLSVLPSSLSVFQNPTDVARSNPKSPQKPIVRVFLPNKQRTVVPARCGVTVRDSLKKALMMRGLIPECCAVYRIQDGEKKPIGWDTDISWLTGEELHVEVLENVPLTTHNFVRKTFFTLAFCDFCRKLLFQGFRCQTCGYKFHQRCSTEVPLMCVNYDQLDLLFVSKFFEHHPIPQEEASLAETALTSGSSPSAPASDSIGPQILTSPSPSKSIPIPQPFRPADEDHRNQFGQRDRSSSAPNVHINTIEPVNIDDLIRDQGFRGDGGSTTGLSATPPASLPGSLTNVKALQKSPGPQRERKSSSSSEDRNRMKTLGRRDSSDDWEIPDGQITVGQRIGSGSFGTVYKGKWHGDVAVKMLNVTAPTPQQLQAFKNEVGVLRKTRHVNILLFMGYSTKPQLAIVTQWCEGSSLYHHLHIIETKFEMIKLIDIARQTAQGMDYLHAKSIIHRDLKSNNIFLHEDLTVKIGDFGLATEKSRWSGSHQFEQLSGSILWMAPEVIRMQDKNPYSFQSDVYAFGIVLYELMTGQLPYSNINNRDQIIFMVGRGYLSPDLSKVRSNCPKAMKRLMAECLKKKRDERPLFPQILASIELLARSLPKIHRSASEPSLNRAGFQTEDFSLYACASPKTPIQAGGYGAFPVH
# Chain of CYP2C19 (P33261 whole entry): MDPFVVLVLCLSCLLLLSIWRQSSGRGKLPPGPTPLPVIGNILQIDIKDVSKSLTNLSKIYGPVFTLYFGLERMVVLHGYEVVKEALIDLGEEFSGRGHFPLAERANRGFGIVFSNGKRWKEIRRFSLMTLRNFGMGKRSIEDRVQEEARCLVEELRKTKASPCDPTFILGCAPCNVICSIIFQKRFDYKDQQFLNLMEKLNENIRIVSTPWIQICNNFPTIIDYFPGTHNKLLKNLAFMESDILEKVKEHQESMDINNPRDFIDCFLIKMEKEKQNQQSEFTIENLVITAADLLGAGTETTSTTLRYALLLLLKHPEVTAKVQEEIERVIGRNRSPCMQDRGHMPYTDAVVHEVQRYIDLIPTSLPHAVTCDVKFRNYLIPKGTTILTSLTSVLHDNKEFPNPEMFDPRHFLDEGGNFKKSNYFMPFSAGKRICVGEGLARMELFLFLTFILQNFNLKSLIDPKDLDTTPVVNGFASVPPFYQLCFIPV
# Chain of CYP2D6 (P10635 whole entry): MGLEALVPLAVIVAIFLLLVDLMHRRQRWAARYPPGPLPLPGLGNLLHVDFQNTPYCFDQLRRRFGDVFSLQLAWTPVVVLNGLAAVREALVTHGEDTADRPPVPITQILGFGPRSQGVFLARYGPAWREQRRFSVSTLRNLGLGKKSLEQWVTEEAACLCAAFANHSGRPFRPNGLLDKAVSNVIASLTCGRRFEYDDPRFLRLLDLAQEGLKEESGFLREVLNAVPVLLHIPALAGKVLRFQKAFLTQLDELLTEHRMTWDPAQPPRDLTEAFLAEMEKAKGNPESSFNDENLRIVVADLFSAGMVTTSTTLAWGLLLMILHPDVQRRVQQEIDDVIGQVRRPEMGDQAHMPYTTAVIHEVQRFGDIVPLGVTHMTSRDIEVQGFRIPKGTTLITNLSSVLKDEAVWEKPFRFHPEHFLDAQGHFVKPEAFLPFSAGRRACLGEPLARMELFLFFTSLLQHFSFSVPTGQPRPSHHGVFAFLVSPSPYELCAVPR
# Chain of CYP2C9 (P11712 whole entry): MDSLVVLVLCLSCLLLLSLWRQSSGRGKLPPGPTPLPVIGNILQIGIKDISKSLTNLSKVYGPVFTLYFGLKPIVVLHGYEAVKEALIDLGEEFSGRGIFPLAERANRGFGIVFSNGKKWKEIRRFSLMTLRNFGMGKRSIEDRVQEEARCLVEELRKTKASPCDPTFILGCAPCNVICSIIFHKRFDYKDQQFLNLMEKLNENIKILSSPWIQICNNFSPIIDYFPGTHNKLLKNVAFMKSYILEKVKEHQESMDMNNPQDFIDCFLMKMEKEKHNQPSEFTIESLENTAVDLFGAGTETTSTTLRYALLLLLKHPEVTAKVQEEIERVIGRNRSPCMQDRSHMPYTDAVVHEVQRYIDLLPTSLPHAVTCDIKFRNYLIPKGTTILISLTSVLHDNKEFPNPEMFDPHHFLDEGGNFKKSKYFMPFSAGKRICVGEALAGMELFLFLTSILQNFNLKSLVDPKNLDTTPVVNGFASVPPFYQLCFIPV
# Chain of CYP1A2 (P05177 whole entry): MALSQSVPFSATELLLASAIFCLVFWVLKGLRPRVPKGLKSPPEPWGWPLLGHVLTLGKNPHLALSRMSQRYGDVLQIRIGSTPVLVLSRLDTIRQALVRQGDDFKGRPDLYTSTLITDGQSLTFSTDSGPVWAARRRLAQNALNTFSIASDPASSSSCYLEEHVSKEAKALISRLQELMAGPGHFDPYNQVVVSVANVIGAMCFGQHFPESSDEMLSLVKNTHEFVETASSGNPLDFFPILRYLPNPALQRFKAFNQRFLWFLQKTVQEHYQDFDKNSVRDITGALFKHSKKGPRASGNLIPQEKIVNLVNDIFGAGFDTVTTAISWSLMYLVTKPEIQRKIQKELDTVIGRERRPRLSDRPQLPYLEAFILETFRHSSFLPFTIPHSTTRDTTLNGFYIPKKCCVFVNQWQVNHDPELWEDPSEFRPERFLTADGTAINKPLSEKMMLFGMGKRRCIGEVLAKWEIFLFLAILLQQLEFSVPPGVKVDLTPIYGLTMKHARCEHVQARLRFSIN
# Chain of CYP3A4(BFC) (P08684 whole entry): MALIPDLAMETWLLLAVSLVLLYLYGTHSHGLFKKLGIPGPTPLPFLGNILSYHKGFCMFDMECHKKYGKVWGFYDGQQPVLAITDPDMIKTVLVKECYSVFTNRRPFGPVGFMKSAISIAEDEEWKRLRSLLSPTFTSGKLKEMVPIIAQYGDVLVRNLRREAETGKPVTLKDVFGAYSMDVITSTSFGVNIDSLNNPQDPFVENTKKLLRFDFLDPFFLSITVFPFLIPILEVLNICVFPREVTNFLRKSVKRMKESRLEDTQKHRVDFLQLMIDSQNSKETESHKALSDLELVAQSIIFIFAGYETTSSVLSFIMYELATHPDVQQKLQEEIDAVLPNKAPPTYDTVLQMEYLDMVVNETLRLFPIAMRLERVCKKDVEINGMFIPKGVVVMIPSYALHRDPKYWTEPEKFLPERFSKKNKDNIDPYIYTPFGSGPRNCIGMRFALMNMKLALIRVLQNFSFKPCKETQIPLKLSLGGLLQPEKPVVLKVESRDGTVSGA
# Chain of CYP3A4(BQ) (P08684 whole entry): as above
# Chain of B-Raf (Homo sapiens (Human), UniProt P15056) (P15056 whole entry): as the sequence (P15056 whole entry V600E) above, with E600V counted along it
# Chain of c-Raf-1 (P04049 whole entry, looked up): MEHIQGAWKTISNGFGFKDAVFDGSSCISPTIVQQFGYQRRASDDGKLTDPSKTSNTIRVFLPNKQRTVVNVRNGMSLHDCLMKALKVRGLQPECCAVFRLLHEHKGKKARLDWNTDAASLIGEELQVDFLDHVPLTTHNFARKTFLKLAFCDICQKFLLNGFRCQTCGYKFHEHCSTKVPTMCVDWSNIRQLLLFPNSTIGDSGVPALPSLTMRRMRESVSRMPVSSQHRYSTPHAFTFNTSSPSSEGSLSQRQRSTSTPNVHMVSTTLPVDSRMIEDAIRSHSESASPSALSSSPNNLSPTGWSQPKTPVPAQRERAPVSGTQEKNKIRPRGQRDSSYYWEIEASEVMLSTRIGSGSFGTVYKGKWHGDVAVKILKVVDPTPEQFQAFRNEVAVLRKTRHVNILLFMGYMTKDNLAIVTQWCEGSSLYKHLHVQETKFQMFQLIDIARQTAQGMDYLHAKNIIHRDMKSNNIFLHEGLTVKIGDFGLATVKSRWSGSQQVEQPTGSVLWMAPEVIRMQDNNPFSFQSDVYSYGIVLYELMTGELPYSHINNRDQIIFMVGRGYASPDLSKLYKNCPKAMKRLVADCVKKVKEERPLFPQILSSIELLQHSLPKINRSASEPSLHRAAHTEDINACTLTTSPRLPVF
Structure (SMILES),"IC50 (CYP1A2; human, 15 min) [µM]",IC50 (CYP2C19; [4]) [µM],IC50 (CYP2C9; [5]) [µM],IC50 (CYP2D6) [µM],IC50 (CYP3A4(BFC); [6]) [µM],IC50 (CYP3A4(BQ); [7]) [µM],IC50 (B-Raf V600E) [µM],"turbidity threshold (L, M, H) 1.4 [3]","turbidity threshold (L, M, H) 4.5 [3]","turbidity threshold (L, M, H) 6.8 [3]","turbidity threshold (L, M, H) 7.4 [3]",other results
"Cc1ncnc2[nH]cc(C(=O)c3c(F)ccc(NS(=O)(=O)c4ccc(C(F)(F)F)cc4)c3F)c12 [P-1001, N-[2,4-Difluoro-3-(4-methyl-7H-pyrrolo[2,3-d]pyrimidine-5-carbonyl)-phenyl]-4-trifluoromethyl-benzenesulfonamide]",> 10,> 10,> 10,> 10,< 5,> 10,> 0.1,H (high solubility if the threshold concentration is >250 μm),M (moderate solubility if the threshold concentration is 31.3 μM to 250 μM),M (moderate solubility if the threshold concentration is 31.3 μM to 250 μM),M (moderate solubility if the threshold concentration is 31.3 μM to 250 μM),IC50 (B-Raf [1]): < 0.1 µM; Biochemical activity ratio B/V600E (B-Raf [2]): 0.1-10; Biochemical activity ratio B/C (B-Raf [2]): 0.1-10; Biochemical activity ratio V600E/C (B-Raf V600E): >10; IC50 (c-Raf-1): < 0.1 µM
"CCCS(=O)(=O)Nc1ccc(F)c(C(=O)c2c[nH]c3ncnc(OCC)c23)c1F [P-1002, Propane-1-sulfonic acid [3-(4-ethoxy-7H-pyrrolo[2,3-d]pyrimidine-5-carbonyl)-2,4-difluoro-phenyl]-amide]",,,,> 10,,,< 0.1,H (high solubility if the threshold concentration is >250 μm),H (high solubility if the threshold concentration is >250 μm),H (high solubility if the threshold concentration is >250 μm),H (high solubility if the threshold concentration is >250 μm),IC50 (B-Raf [1]): > 0.1 µM; Biochemical activity ratio B/V600E (B-Raf [2]): 0.1-10; Biochemical activity ratio B/C (B-Raf [2]): >10; Biochemical activity ratio V600E/C (B-Raf V600E): 0.1-10; IC50 (c-Raf-1): < 0.1 µM; IC50 (CYP1A2): > 10 µM; IC50 (CYP2C19): > 10 µM; IC50 (CYP2C9): > 10 µM; IC50 (CYP3A4(BFC)): > 10 µM; IC50 (CYP3A4(BQ)): > 10 µM
"CCCS(=O)(=O)Nc1ccc(F)c(C(=O)c2c[nH]c3ncnc(Nc4ccccc4)c23)c1F [P-1048, Propane-1-sulfonic acid [2,4-difluoro-3-(4-phenylamino-7H-pyrrolo[2,3-d]pyrimidine-5-carbonyl)-phenyl]-amide]",> 10,> 10,> 10,> 10,> 10,> 10,< 0.1,,,,,
"CCCS(=O)(=O)Nc1ccc(F)c(C(=O)c2c[nH]c3ncnc(Nc4cn(C)nc4C)c23)c1F [P-1100, Propane-1-sulfonic acid {3-[4-(1,3-dimethyl-1H-pyrazol-4-ylamino)-7H-pyrrolo[2,3-d]pyrimidine-5-carbonyl]-2,4-difluoro-phenyl}-amide]",,> 10,> 10,> 10,> 10,> 10,,M (moderate solubility if the threshold concentration is 31.3 μM to 250 μM),M (moderate solubility if the threshold concentration is 31.3 μM to 250 μM),L (low solubility if the threshold concentration is <31.3 μM),L (low solubility if the threshold concentration is <31.3 μM),"IC50 (CYP1A2; read-out: Cyp IC50 1A2, CYP1A2, substrate CEC): > 10 µM"
"CCCS(=O)(=O)Nc1ccc(F)c(C(=O)c2c[nH]c3ncnc(Nc4ccc(OC)cc4F)c23)c1F [P-1101, Propane-1-sulfonic acid {2,4-difluoro-3-[4-(2-fluoro-4-methoxy-phenylamino)-7H-pyrrolo[2,3-d]pyrimidine-5-carbonyl]-phenyl}-amide]",> 10,> 10,> 10,> 10,> 10,> 10,,L (low solubility if the threshold concentration is <31.3 μM),L (low solubility if the threshold concentration is <31.3 μM),L (low solubility if the threshold concentration is <31.3 μM),L (low solubility if the threshold concentration is <31.3 μM),

# Now from value to compound, other results behind:
"IC50 (CYP1A2; human, 15 min) [µM]",IC50 (CYP2C19; [4]) [µM],IC50 (CYP2C9; [5]) [µM],IC50 (CYP2D6) [µM],IC50 (CYP3A4(BFC); [6]) [µM],IC50 (CYP3A4(BQ); [7]) [µM],Structure (SMILES),IC50 (B-Raf V600E) [µM],"turbidity threshold (L, M, H) 1.4 [3]","turbidity threshold (L, M, H) 4.5 [3]","turbidity threshold (L, M, H) 6.8 [3]","turbidity threshold (L, M, H) 7.4 [3]",other results
> 10,> 10,> 10,> 10,> 10,> 10,"O=C(c1c(F)ccc(NS(=O)(=O)c2ccccc2F)c1F)c1c[nH]c2ncnc(NC3CC3)c12 [P-1103, N-[3-(4-Cyclopropylamino-7H-pyrrolo[2,3-d]pyrimidine-5-carbonyl)-2,4-difluoro-phenyl]-2-fluoro-benzenesulfonamide]",,M (moderate solubility if the threshold concentration is 31.3 μM to 250 μM),L (low solubility if the threshold concentration is <31.3 μM),L (low solubility if the threshold concentration is <31.3 μM),M (moderate solubility if the threshold concentration is 31.3 μM to 250 μM),
> 10,> 10,> 10,> 10,> 10,> 10,"O=C(c1c(F)ccc(NS(=O)(=O)c2cc(F)ccc2F)c1F)c1c[nH]c2ncnc(NC3CC3)c12 [P-1104, N-[3-(4-Cyclopropylamino-7H-pyrrolo[2,3-d]pyrimidine-5-carbonyl)-2,4-difluoro-phenyl]-2,5-difluoro-benzenesulfonamide]",,H (high solubility if the threshold concentration is >250 μm),M (moderate solubility if the threshold concentration is 31.3 μM to 250 μM),M (moderate solubility if the threshold concentration is 31.3 μM to 250 μM),M (moderate solubility if the threshold concentration is 31.3 μM to 250 μM),
,> 10,> 10,> 10,> 10,> 10,"O=C(c1c(F)ccc(NS(=O)(=O)c2cc(F)ccc2F)c1F)c1c[nH]c2ncnc(C3CC3)c12 [P-1107, N-[3-(4-Cyclopropyl-7H-pyrrolo[2,3-d]pyrimidine-5-carbonyl)-2,4-difluoro-phenyl]-2,5-difluoro-benzenesulfonamide]",,M (moderate solubility if the threshold concentration is 31.3 μM to 250 μM),L (low solubility if the threshold concentration is <31.3 μM),M (moderate solubility if the threshold concentration is 31.3 μM to 250 μM),M (moderate solubility if the threshold concentration is 31.3 μM to 250 μM),IC50 (CYP1A2): 5 to 10 µM
> 10,> 10,> 10,> 10,> 10,> 10,"Cc1nn(C)cc1Nc1ncnc2[nH]cc(C(=O)c3c(F)ccc(NS(=O)(=O)c4ccccc4F)c3F)c12 [P-1154, N-{3-[4-(1,3-Dimethyl-1H-pyrazol-4-ylamino)-7H-pyrrolo[2,3-d]pyrimidine-5-carbonyl]-2,4-difluoro-phenyl}-2-fluoro-benzenesulfonamide]",,L (low solubility if the threshold concentration is <31.3 μM),L (low solubility if the threshold concentration is <31.3 μM),L (low solubility if the threshold concentration is <31.3 μM),L (low solubility if the threshold concentration is <31.3 μM),
